Measurements: US10660967B2, “Curcumin conjugates and methods of use thereof” (priority 2016, dated 2020)
In brackets after ≈: the same amount, converted by molar mass. Several values for one entry are separate records, joined by “and”; a condition that tells them apart may be missing. Equal values may be shown once. Read-outs that look alike come from different tables or passages of the source.

How the values were obtained:
[1] = test system: Candida albicans (local isolate); test: Antimicrobial MIC, agar dilution; conditions: Candida albicans (local isolate)
[2] = test system: Salmonella typhi ATCC19430; test: Antimicrobial MIC, agar dilution; type: cell-based; conditions: Salmonella enterica, read-out: Minimum inhibitory concentration (MIC)
[3] = test system: Streptococcus pyogenes ATCC19615; test: Antimicrobial MIC, agar dilution
[4] = test system: Staphylococcus aureus ATCC25923; test: Antimicrobial MIC, agar dilution; conditions: ATCC25923, 18 h, read-out: Minimum inhibitory concentration (MIC)
[5] = test system: Pseudomonas aeruginosa ATCC27853; test: Antimicrobial MIC, agar dilution
[6] = test system: carrageenan induced paw edema; test: Anti-inflammatory activity: acute carrageenan induced paw edema in rats; type: in vivo, Wister rats; conditions: 10 mg kg^−1 indomethacin mol equivalent; for % inhibition of edema / Mean edema thickness: intraperitoneally; for Mean edema thickness: mean ± SE; for Potency (% inhibition of edema relative to that of indomethacin reference standard): at 4 h effect
In short: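 Wistar rats (120–150 g, n=6/group) received subplantar 1% carrageenan in the right hind paw, and DMSO-vehicle animals served as controls. Results are given as % inhibition of edema thickness versus control.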

gastric mucosa = test: Ulcerogenic liability (ulcer index); type: in vivo, albino mice
Method: The ulcerogenic liability was investigated in albino mice using the standard method. […] The animals were fasted 18 h before drug administration. […] The control group animals were given saline solution only with few drops of Tween 80. […] The gastric mucosa was examined with a magnifying lens (10×) for the presence of lesions and erosions.
1. percentage incidence of ulcer divided by 10;
2. average number of ulcers per stomach; and
3. average severity of ulcers;

[7] = test system: PHA-stimulated splenocytes; test: Proliferative response of PHA-stimulated splenocytes (MTT assay); type: cell-based
Method: Immunomodulatory effects of the synthesized curcumin conjugates on the proliferative response of PHA-stimulated splenocytes were evaluated. The effect of curcumin and its amino acid conjugates on splenocyte viability and proliferation in response to a T cell miotgen (Phytohaemagglutinin; PHA) was evaluated using the MTT assay. Freshly prepared splenocytes (1×10^6 cells/200 μl/well) were cultured in a 96-well U-bottom microtiter plate (Nunc) in complete medium. Cells were treated with tested compounds at a final concentration of 10 μM, vehicle (DMSO) or left untreated in triplicate then incubated at 37° C. and 5% CO2. When testing the immunoregulatory effects of the compounds on splenocyte stimulation, PHA (5 μg/ml) was added to the culture media to induce T cell proliferation. The proliferative response to PHA+vehicle and vehicle alone served as controls. After 72 hr, media were removed after pelleting the cells by centrifugation and MTT salt solution (5 mg/ml) was added into each well then incubated at 37° C. for 4 h. Afterwards, formazan crystals were dissolved by adding 150 μl 10% sodium dodecyl sulfate (SDS). Absorbance was measured with a spectrophotometer at 570 nm and reference wavelength of 690 nm.
Splenocyte stimulation index was determined as the ratio of O.D. values in tested compounds versus vehicle control cultures.

[8] = test system: lipopolysaccharide-stimulated peritoneal macrophages; test: Production of nitric oxide by lipopolysaccharide-stimulated peritoneal macrophages (Greiss reagent); type: cell-based; parameters: Potency (%): % inhibition of nitric oxide production relative to lipopolysaccharide-stimulated macrophages: concentration or dose not given beside the values; conditions: LPS-stimulated peritoneal macrophages
Method: The effects of the synthesized curcumin conjugates on the production of nitric oxide (μM) by lipopolysaccharide-stimulated peritoneal macrophages were evaluated.
Two milliliters of macrophage cells were seeded in 12-well tissue culture plates in nitrite-free medium supplemented with 0.1% bovine serum albumin and incubated at 37° C. LPS±epinephrine, norepinephrine, or dopamine at […] concentrations was added to some wells. The concentrations of LPS used ranged from 0.5 to 10 ng/ml. After incubation for 24 h, supernatants were collected for measuring nitric oxide (NO) by spectrophotometry. The production of NO was determined from the accumulation of nitrite (NO2), the metabolic end product of NO metabolism, in the medium using the Greiss reagent. About equal volumes (100 μl) of sample and Greiss reagent (1:1 mixture of 1% sulfanilamide in 5% phosphoric acid, and 0.1% a-naphthylamine in distilled water) were mixed and incubated at room temperature for 15 min, and absorbance was measured at 532 nm on a spectrophotometer.

[9] = ATCC19615, 18 h, read-out: Minimum inhibitory concentration (MIC)
[10] = ATCC19615, read-out: Minimum inhibitory concentration (MIC)
[11] = ATCC27853, 18 h, read-out: Minimum inhibitory concentration (MIC)
[12] = ATCC27853, read-out: Minimum inhibitory concentration (MIC)
[13] = both, albino, mouse, in vivo, po, 10 mg/kg, 3 days
[14] = orally, three successive days, 10 mg/kg indomethacin mol equivalent

C[C@@H]1[C@H](O)[C@@H](C)/C=C/C=C/C=C/C=C/C=C/C=C/C=C/[C@H](O[C@@H]2O[C@H](C)[C@@H](O)[C@H](N)[C@@H]2O)C[C@@H]2O[C@](O)(C[C@@H](O)C[C@@H](O)[C@H](O)CC[C@@H](O)C[C@@H](O)CC(=O)O[C@H]1C)C[C@H](O)[C@H]2C(=O)O [Amphotericin B, reference compound]
Minimum inhibitory concentration (MIC) ([1]; 37° C., 18 h): 0.39 µg/mL (≈ 0.000422 mM) | Minimum inhibitory concentration (MIC) ([1]; value in brackets): (0.422) μM

O=C(O)c1cn(C2CC2)c2cc(N3CCNCC3)c(F)cc2c1=O [Ciprofloxacin, reference compound]
MIC ([2]; 18 h): 2.4 µg/mL | MIC [2]: 7.24 µM | MIC [3, 9]: 1250 µg/mL | MIC [3, 10]: 3770 µM | MIC [4]: 1250 µg/mL (≈ 3.77 mM) | MIC [5, 11]: 4.8 µg/mL | MIC [5, 12]: 14.5 µM

COc1cc(/C=C/C(=O)CC(=O)/C=C/c2ccc(OC(=O)[C@@H](N)C(C)C)c(OC)c2)ccc1OC(=O)[C@@H](N)C(C)C.Cl.Cl [Compound 41]
% inhibition of edema ([6]; 1 h): 60% | Mean edema thickness ([6]; 1 h): 0.97 ± 0.10 mm | % inhibition of edema ([6]; 2 h): 50% | Mean edema thickness ([6]; 2 h): 1.04 ± 0.12 mm | % inhibition of edema ([6]; 3 h): 48% | Mean edema thickness ([6]; 3 h): 0.93 ± 0.11 mm | % inhibition of edema ([6]; 4 h): 46% | Mean edema thickness ([6]; 4 h): 0.75 ± 0.09 mm | % inhibition of edema ([6]; 24 h): 14% | Mean edema thickness ([6]; 24 h): 0.71 ± 0.11 mm | Potency (% inhibition of edema relative to that of indomethacin reference standard) [6]: 53

CC[C@H](C)[C@H](N)C(=O)Oc1ccc(/C=C/C(=O)CC(=O)/C=C/c2ccc(OC(=O)[C@@H](N)[C@@H](C)CC)c(OC)c2)cc1OC.Cl.Cl [Compound 42]
% inhibition of edema ([6]; 1 h): 59% and 33% | Mean edema thickness ([6]; 1 h): 0.99 ± 0.09 mm and 1.61 ± 0.07 mm | % inhibition of edema ([6]; 2 h): 54% and 36% | Mean edema thickness ([6]; 2 h): 0.95 ± 0.09 mm and 1.31 ± 0.09 mm | % inhibition of edema ([6]; 3 h): 65% and 47% | % inhibition of edema ([6]; 4 h): 98% and 76% | % inhibition of edema ([6]; 24 h): 35% and 30% | Mean edema thickness ([6]; 24 h): 0.54 ± 0.01 mm and 0.58 ± 0.08 mm | Potency (% inhibition of edema relative to that of indomethacin reference standard) [6]: 113 and 87

COc1cc(/C=C/C(=O)CC(=O)/C=C/c2ccc(OC(=O)[C@@H](N)CCC(N)=O)c(OC)c2)ccc1OC(=O)[C@@H](N)CCC(N)=O.Cl.Cl [Compound 43]
% inhibition of edema ([6]; 1 h): 46% | Mean edema thickness ([6]; 1 h): 1.29 ± 0.19 mm | % inhibition of edema ([6]; 2 h): 45% | Mean edema thickness ([6]; 2 h): 1.14 ± 0.11 mm | % inhibition of edema ([6]; 3 h): 43% | Mean edema thickness ([6]; 3 h): 1.02 ± 0.14 mm | % inhibition of edema ([6]; 4 h): 42% | Mean edema thickness ([6]; 4 h): 0.81 ± 0.11 mm | % inhibition of edema ([6]; 24 h): 31% | Mean edema thickness ([6]; 24 h): 0.57 ± 0.09 mm | Potency (% inhibition of edema relative to that of indomethacin reference standard) [6]: 48

CC(C)Cc1ccc(C(C)C(=O)O)cc1 (stereo not drawn) [Ibuprofen, 2-(4-isobutylphenyl)propanoic acid, reference compound]
Average of ulcer number (gastric mucosa; [13]): 0.33 | Average severity of ulcer (gastric mucosa; [13]): 0.67 | Number of animals with ulcer (gastric mucosa; [13]): 2/6 | % Incidence of ulcer divided by 10 (gastric mucosa; [14]): 3.33

COc1ccc2c(c1)c(CC(=O)O)c(C)n2C(=O)c1ccc(Cl)cc1 [Indomethacin, 2-(1-(4-chlorobenzoyl)-5-methoxy-2-methyl-1H-indol-3-yl)acetic acid, reference compound]
% Incidence of ulcer divided by 10 (gastric mucosa; [13]): 10 | Average of ulcer number (gastric mucosa; [13]): 2 | Number of animals with ulcer (gastric mucosa; [13]): 6/6 | Average severity of ulcer (gastric mucosa; [14]): 1.67 | Ulcer index (gastric mucosa; sum of the three values, orally, three successive days, 10 mg/kg indomethacin mol equivalent): 13.67

CCn1cc(C(=O)O)c(=O)c2cc(F)c(N3CCNCC3)cc21 [Norfloxacin, reference compound]
MIC ([2]; 18 h): 2.4 µg/mL | MIC [2]: 7.52 µM | MIC [3, 9]: 625 µg/mL | MIC [3, 10]: 1960 µM | MIC [4]: 1250 µg/mL (≈ 3.91 mM) | MIC [5, 11]: 4.8 µg/mL | MIC [5, 12]: 15 µM

Phytohaemagglutinin [PHA, reference compound]
Stimulation Index (average ± SD) ([7]; PHA 5 μg/ml, 72 hr, compounds at 5 μM (method says 10 μM), ratio of O.D. versus vehicle control): 2.78 ± 0.28 | splenocyte proliferation, fold relative to untreated control cells ([7]; in the presence of PHA, text of b265): 2.76 fold

lipopolysaccharide [LPS, reference compound]
Potency (%): % inhibition of nitric oxide production relative to lipopolysaccharide-stimulated macrophages [8]: 0.00% | Nitric oxide (nitrite) concentration, μM (average ± SD) ([8]; 24 h, nitrite by Greiss reagent): 27.31 ± 2.56 µM
